The text below walks through data of US20080214648A1, “Hiv Prodrugs Cleavable by Cd26” (priority 2003, published 2008).

One data set deals with CD26 (Homo sapiens, UniProt P27487). Put plainly: Competitive inhibition of CD26-catalysed conversion of GP-pNA to GP+pNA (purified CD26). Format: biochemical. How it is done:
(§1) The CD26 catalytic reaction was measured by recording the increase of absorption caused by pNA release at 400 nm.

For a further data set, the target named is purified CD26 (Homo sapiens, UniProt P27487). Nature of the data set: Conversion of Val-Pro-PI 1 to PI 1 by purified CD26. The class given is biochemical. The procedure:
(§2) A: CD26; B: bovine serum; C: human serum (both 10% in PBS).
(§3) Ten percent BS or HS converted 40 to 70% of Val-Pro-PI 1 to PI 1 in one hour (FIG. 10). Two percent BS and HS converted Val-Pro-PI 1 to PI 1 by 8% and 25%, respectively. After 4 hrs, 35% and 95% of compound was hydrolyzed by BS and HS, respectively (FIG. 11).
(§4) Compounds were separated on a Reverse Phase RP-8 (Merck) using a gradient with buffer A (50 mM NaH2PO4+5 mM heptane sulfonic acid pH 3.2) and buffer B (acetonitrile).
(§5) 0→2 min: 2% buffer B; 2→8 min: 20% buffer B; 8→10 min: 25% buffer B; 10→12 min: 35% buffer B; 12→30 min: 50% buffer B; 30→35 min: 50% buffer B; 35→40 min: 2% buffer B; 40→45 min: 2% buffer B. Rt values of Val-Pro-PI 1 and PI 1 were 18.7 and 17.7 min, respectively.

For the next data set, the target named is T1, CD26 in bovine serum (Bos taurus, UniProt P81425).
T1 construct: Conversion of GP-pNA to pNA by two percent BS in PBS; from tissue; host or cells: bovine serum, 2% in PBS
Nature of the data set: Inhibition of GP-pNA conversion to pNA by 2% bovine serum in PBS. The class given is biochemical. Particulars: 2% BS in PBS, compared with purified CD26. How it is done:
as §1

Data set [1] can be described thus: Conversion of Val-Pro-PI 1 to PI 1 by human serum diluted in PBS. Format: in vitro ADME. Particulars: 2% human serum (HS) in PBS. The procedure: as §2
(§6) FIG. 3a: Bovine serum (2% in PBS), FIG. 3b: Human serum (2% in PBS).
as §3, §4, §5

Data set [2] can be described thus: Conversion of Val-Pro-PI 1 to PI 1 by bovine serum diluted in PBS. Particulars: 2% bovine serum (BS) in PBS. The class given is in vitro ADME. The procedure: as §2, §6, §3, §4, §5
A further data set deals with T2, CD26 in human serum (Homo sapiens, UniProt P27487).
T2 construct: from tissue; host or cells: human serum, 2% in PBS
Nature of the data set: Inhibition of GP-pNA conversion to pNA by 2% human serum in PBS. The class given is biochemical. As to conditions: HS 2% in PBS. The procedure:
as §1

[3] abbreviates: time not printed (preceding sentence: one hour).

Sequence of CD26 (P27487 whole entry, species assumed): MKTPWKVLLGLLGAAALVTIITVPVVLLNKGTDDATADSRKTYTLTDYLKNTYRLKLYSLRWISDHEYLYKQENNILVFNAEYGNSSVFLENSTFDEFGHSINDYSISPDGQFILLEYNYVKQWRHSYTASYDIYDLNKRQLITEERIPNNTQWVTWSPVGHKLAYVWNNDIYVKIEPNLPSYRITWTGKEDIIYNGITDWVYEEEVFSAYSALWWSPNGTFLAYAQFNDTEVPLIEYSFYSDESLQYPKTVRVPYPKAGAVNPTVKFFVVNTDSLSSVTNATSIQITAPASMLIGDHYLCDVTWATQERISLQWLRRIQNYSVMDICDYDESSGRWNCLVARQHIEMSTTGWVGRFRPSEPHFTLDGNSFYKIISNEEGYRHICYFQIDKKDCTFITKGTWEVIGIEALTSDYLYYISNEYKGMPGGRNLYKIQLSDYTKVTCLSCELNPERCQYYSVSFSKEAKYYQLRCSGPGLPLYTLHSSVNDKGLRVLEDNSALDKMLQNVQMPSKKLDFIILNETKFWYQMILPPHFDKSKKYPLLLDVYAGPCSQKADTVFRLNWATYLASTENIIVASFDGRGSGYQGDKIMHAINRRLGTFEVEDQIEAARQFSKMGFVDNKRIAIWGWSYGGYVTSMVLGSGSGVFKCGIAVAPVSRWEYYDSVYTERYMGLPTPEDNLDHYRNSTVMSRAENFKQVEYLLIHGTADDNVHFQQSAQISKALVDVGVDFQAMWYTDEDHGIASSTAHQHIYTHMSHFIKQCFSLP
T1 sequence (P81425 38-765): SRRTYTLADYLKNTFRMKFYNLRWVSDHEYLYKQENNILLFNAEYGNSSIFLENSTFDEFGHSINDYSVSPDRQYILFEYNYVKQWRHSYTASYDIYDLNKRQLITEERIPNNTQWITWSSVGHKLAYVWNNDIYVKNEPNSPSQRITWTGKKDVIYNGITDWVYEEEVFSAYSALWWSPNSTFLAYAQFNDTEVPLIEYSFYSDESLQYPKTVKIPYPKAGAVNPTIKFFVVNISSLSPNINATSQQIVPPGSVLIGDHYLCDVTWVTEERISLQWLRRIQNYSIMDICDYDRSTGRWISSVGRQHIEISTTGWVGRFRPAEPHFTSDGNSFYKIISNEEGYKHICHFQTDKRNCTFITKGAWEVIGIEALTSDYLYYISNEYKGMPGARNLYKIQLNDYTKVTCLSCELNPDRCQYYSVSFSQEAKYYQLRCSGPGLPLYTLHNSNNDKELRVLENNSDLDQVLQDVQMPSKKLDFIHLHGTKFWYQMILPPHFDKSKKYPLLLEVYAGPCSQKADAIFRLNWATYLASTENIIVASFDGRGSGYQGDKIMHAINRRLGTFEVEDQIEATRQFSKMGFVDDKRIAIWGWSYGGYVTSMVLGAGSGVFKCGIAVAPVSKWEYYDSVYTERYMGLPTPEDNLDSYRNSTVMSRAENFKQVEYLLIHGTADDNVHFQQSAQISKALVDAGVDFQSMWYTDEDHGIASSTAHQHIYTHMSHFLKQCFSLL
T2 sequence (P27487 39-766 limits assumed): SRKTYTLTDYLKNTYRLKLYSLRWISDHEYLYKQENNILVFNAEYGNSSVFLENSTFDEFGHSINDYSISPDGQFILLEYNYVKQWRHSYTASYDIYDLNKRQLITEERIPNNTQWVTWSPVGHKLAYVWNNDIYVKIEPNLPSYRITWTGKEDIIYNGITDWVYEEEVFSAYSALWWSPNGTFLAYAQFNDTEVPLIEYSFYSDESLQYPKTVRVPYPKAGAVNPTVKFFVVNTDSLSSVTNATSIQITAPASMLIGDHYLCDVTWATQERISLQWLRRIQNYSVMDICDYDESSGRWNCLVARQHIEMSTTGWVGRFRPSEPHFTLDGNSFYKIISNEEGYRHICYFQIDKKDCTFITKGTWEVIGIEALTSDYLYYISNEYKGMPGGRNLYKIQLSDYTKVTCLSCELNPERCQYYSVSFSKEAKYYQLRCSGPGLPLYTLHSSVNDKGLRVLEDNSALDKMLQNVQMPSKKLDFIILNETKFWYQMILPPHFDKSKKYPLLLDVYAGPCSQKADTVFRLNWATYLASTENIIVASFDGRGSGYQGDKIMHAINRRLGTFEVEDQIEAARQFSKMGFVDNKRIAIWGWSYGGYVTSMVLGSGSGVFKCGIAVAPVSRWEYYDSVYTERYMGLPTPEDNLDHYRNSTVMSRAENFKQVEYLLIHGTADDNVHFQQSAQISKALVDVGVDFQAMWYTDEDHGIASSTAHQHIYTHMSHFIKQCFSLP
Sequence of purified CD26 (P27487 whole entry, species assumed): as the sequence (P27487 whole entry, species assumed) above

`CC(C)CN(C[C@@H](O)[C@H](Cc1ccccc1)NC(=O)O[C@H]1CO[C@H]2OCC[C@H]21)S(=O)(=O)c1ccc(CNC(=O)[C@@H]2CCCN2C(=O)[C@@H](N)C(C)C)cc1` [Val-Pro-PI 1]: the “inhibition of release of pNA from GP-pNA” value on CD26 (20 μM Val-Pro-PI 1, 50 μM GP-pNA) was “could inhibit”. In addition, the “competition with substrate GP-pNA for CD26” value on CD26 (100 μM Val-Pro-PI 1, 50 μM GP-pNA) is reported as “efficiently competed”. The “time to complete conversion of Val-Pro-PI 1 to PI 1” value at purified CD26 is at most 60 min. For the same compound, at CD26 in bovine serum, the “inhibition of conversion of GP-pNA to pNA” value was “even more efficiently inhibited”. In addition, the compound hydrolyzed in data set [1] (after 4 hrs) is 95%; in data set [2] (after 4 hrs), 35%. Also, the “conversion of Val-Pro-PI 1 to PI 1” value in data set [1] (setting [3]) came out at 25%; in data set [2] (setting [3]), 8%. Also, at CD26 in human serum, the “inhibition of GP-pNA conversion to pNA” value was “competitively inhibited”.
